These results are taken from patent publication US20160108038A1, “BICYCLIC ARYL SULFIDE AND ARYL SULFOXIDE DERIVATIVES AS PEST CONTROL AGENT” (BAYER CROPSCIENCE AKTIENGESELLSCHAFT, priority 2013, published 2016).

Read-outs that look alike come from different tables or passages of the source.

Data set [1] in a line: log P determination by HPLC on reversed-phase columns (C 18), analogous to OECD Guideline 117. The note with it: for chromatographic logP: reversed-phase C18 HPLC column. It is filed as physicochemical. Here is the method: The log P values were determined analogously to OECD Guideline 117 (EC Directive 92/69/EEC) by HPLC (high-performance liquid chromatography) using reversed-phase columns (C 18), by the following methods: [a] The LC-MS determination in the acidic range was effected at pH 2.7 with 0.1% aqueous formic acid and acetonitrile (contains 0.1% formic acid) as eluents; linear gradient from 10% acetonitrile to 95% acetonitrile. log P^[a] is also referred to as log P(HCOOH). [b] LC-MS determination in the neutral range was effected at pH 7.8 with 0.001 molar aqueous ammonium hydrogencarbonate solution and acetonitrile as eluents; linear gradient from 10% acetonitrile to 95% acetonitrile. log P^[…] is also referred to as log P(neutral).

Data set [2] deals with Tetranychus urticae. Description: Tetranychus urticae spray test, OP-resistant. It is filed as in vivo. The note with it: 500 g/ha, bean leaf discs, after 6 days. The procedure: Tetranychus urticae—Spray Test, OP-Resistant
(§1) To produce a suitable preparation of active compound, 1 part by weight of active compound is dissolved using the stated parts by weight of solvent and made up with water containing an emulsifier concentration of 1000 ppm until the desired concentration is attained. To produce further test concentrations, the preparation is diluted with emulsifier-containing water.
Discs of bean leaves (Phaseolus vulgaris) infested with all stages of the greenhouse red spider mite (Tetranychus urticae) are sprayed with an active compound preparation of the desired concentration.
After 6 days, the efficacy in % is determined. 100% means that all the spider mites have been killed; 0% means that none of the spider mites have been killed.

The subject of data set [3] is Boophilus microplus. Description: Boophilus microplus injection test. It is filed as in vivo. The note with it: 20 μg/animal, injection into engorged adult female cattle ticks, after 7 days; 100% = no fertile eggs. The procedure: Boophilus microplus—Injection Test Solvent: dimethyl sulfoxide To produce a suitable preparation of active compound, 10 mg of active compound are mixed with 0.5 ml of solvent and the concentrate is diluted with solvent to the desired concentration. 1 μl of the active compound solution is injected into the abdomen of 5 engorged adult female cattle ticks (Boophilus microplus). The animals are transferred into dishes and kept in a climate-controlled room. Efficacy is assessed after 7 days by laying of fertile eggs. Eggs which are not visibly fertile are stored in a climate-controlled cabinet until the larvae hatch after about 42 days. An efficacy of 100% means that none of the ticks has laid any fertile eggs; 0% means that all the eggs are fertile.

The test system of data set [4] is Phaedon cochleariae. Description: Phaedon cochleariae spray test. It is filed as in vivo. The note with it: 500 g/ha, Chinese cabbage leaf discs, after 7 days. Here is the method:
Phaedon cochleariae—Spray Test
as §1
After 7 days, the efficacy in % is determined. 100% means that all the beetle larvae have been killed; 0% means that no beetle larvae have been killed.

For data set [5], the system named is Meloidogyne incognita. Description: Meloidogyne incognita test. The note with it: 20 ppm, lettuce, after 14 days; 100% = no galls. It is filed as in vivo. The procedure: Meloidogyne incognita Test Solvent: 125.0 parts by weight of acetone To produce a suitable preparation of active compound, 1 part by weight of active compound is mixed with the stated amount of solvent and the concentrate is diluted with water to the desired concentration. Vessels are filled with sand, active compound solution, an egg/larvae suspension of the southern root-knot nematode (Meloidogyne incognita) and lettuce seeds. The lettuce seeds germinate and the plants develop. The galls develop on the roots. After 14 days, the nematicidal efficacy in % is determined by the formation of galls. 100% means that no galls were found; 0% means that the number of galls on the treated plants corresponds to the untreated control.

Setting [6] is: acidic range, pH 2.7, 0.1% aqueous formic acid and acetonitrile, read-out: logP(HCOOH).
The mark [7] stands for this setting: neutral range, pH 7.8, 0.001 molar aqueous ammonium hydrogencarbonate and acetonitrile, read-out: logP(neutral).
Where [8] appears, read: acidic range, pH 2.7, 0.1% aqueous formic acid and acetonitrile.
Setting [9] is: neutral range, pH 7.8, 0.001 molar aqueous ammonium hydrogencarbonate and acetonitrile.

`Cc1cc(F)c(NC(=O)c2cccnc2N)cc1SCC(F)(F)F` [2-Amino-N-{2-fluoro-4-methyl-5-[(2,2,2-trifluoroethyl)sulfanyl]phenyl}nicotinamide]: the figures for the chromatographic logP in data set [1] (setting [6]) and in data set [1] (setting [7]) were 1.7 and 2.71, respectively.

`Cc1nc2ncccc2c(=O)o1` [2-Methyl-4H-pyrido[2,3-d][1,3]oxazin-4-one]: the chromatographic logP in data set [1] (setting [6]) is 0.42; in data set [1] (setting [7]) it was 0.43.

On to `Cc1cc(F)c(-n2cnc3ccncc3c2=O)cc1SCC(F)(F)F` [Compound 1], for which, in data set [1] (setting [8]), the “logP(HCOOH)” value was found to be 2.54. For the same compound, in data set [1] (setting [9]), the “logP(neutral)” value worked out at 2.56. In addition, the “efficacy (spider mites killed)” value in data set [2] worked out at 100%.

Take `Cc1cc(F)c(-n2cnc3ncccc3c2=O)cc1SCC(F)(F)F` [Compound 2, 3-{2-Fluoro-4-methyl-5-[(2,2,2-trifluoroethyl)sulfanyl]phenyl}-2-pyrido [2,3-d]pyrimidin-4(3H)-one]: the chromatographic logP in data set [1] (setting [6]) and in data set [1] (setting [7]) was 2.43 each time. In data set [2], the “efficacy (spider mites killed)” value worked out at 90%.

As to `O=c1c2cccnc2ncn1-c1cc(SCC(F)(F)F)c(Cl)cc1Cl` [Compound 3], the “logP(HCOOH)” value in data set [1] (setting [8]) is 2.73. Further, the “logP(neutral)” value in data set [1] (setting [9]) is reported as 2.68.

`Cc1cc(C)c(-n2cnc3ncccc3c2=O)cc1SCC(F)(F)F` [Compound 4]: the “logP(HCOOH)” value in data set [1] (setting [8]) is reported as 2.53. In addition, the “logP(neutral)” value in data set [1] (setting [9]) stood at 2.54. For the same compound, the “efficacy (spider mites killed)” value in data set [2] is listed as 100%.

Take `Cc1cc(F)c(-n2cnc3ncccc3c2=O)cc1[S+]([O-])CC(F)(F)F` (stereo not drawn) [Compound 5, 3-{2-Fluoro-4-methyl-5-[(2,2,2-trifluoroethyl)sulfinyl]phenyl}pyrido[2,3-d]pyrimidin-4(3H)-one]: the chromatographic logP in data set [1] (setting [6]) and in data set [1] (setting [7]) was 1.56 each time. For the same compound, the “efficacy (spider mites killed)” value in data set [2] is listed as 90%.

For the compound `Cc1cc(C)c([S+]([O-])CC(F)(F)F)cc1-n1cnc2ncccc2c1=O` (stereo not drawn) [Compound 6], in data set [3], the “efficacy (laying of fertile eggs)” value amounted to 100%. In data set [1] (setting [8]), the “logP(HCOOH)” value worked out at 1.62. Also, in data set [1] (setting [9]), the “logP(neutral)” value was determined as 1.61. In data set [2], the “efficacy (spider mites killed)” value is 100%.

`O=c1c2cccnc2ncn1-c1cc([S+]([O-])CC(F)(F)F)c(Cl)cc1Cl` (stereo not drawn) [Compound 7]: in data set [1] (setting [8]), the “logP(HCOOH)” value is on record as 1.98. In addition, in data set [1] (setting [9]), the “logP(neutral)” value is 1.84. Moreover, the “efficacy (spider mites killed)” value in data set [2] was determined as 90%.

As to `Cc1cc(F)c(-n2c(C)nc3ncccc3c2=O)cc1SCC(F)(F)F` [Compound 8, 3-{2-Fluoro-4-methyl-5-[(2,2,2-trifluoroethyl)sulfanyl]phenyl}-2-mehtylpyrido[2,3-d]pyrimidin-4(3H)-one], the figures for the chromatographic logP in data set [1] (setting [6]) and in data set [1] (setting [7]) were 2.55 and 2.52, respectively. Further, the “efficacy (spider mites killed)” value in data set [2] turned out to be 100%.

On to `Cc1cc(F)c(-n2cnc3cccnc3c2=O)cc1SCC(F)(F)F` [Compound 9], for which the “logP(HCOOH)” value in data set [1] (setting [8]) turned out to be 2.33. Also, in data set [2], the “efficacy (spider mites killed)” value was 100%.

With `Cc1cc(F)c(-n2c(C)nc3ncccc3c2=O)cc1[S+]([O-])CC(F)(F)F` (stereo not drawn) [Compound 10, 3-{2-Fluoro-4-methyl-5-[(2,2,2-trifluoroethyl)sulfinyl]phenyl}-2-mehtylpyrido[2,3-d]pyrimidin-4(3H)-one], the chromatographic logP in data set [1] (setting [6]) is 1.66; in data set [1] (setting [7]), 1.64. The “efficacy (spider mites killed)” value in data set [2] worked out at 100%.

For the compound `Cc1cc(F)c(-n2cnc3cccnc3c2=O)cc1[S+]([O-])CC(F)(F)F` (stereo not drawn) [Compound 11], the “logP(HCOOH)” value in data set [1] (setting [8]) stood at 1.49. Also, the “logP(neutral)” value in data set [1] (setting [9]) is given as 1.46. Also, the “efficacy (beetle larvae killed)” value in data set [4] was found to be 100%. Further, in data set [2], the “efficacy (spider mites killed)” value came out at 100%.

Take `Cc1cc(F)c(-n2cnc3cnccc3c2=O)cc1SCC(F)(F)F` [Compound 12]: the “logP(HCOOH)” value in data set [1] (setting [8]) came to 2.55. For the same compound, the “logP(neutral)” value in data set [1] (setting [9]) came to 2.56.

Turning to `Cc1cc(F)c(-n2cnc3cnccc3c2=O)cc1[S+]([O-])CC(F)(F)F` (stereo not drawn) [Compound 13], in data set [1] (setting [8]), the “logP(HCOOH)” value came to 1.60. Further, in data set [1] (setting [9]), the “logP(neutral)” value turned out to be 1.63. For the same compound, in data set [2], the “efficacy (spider mites killed)” value is 100%.

Take `Cc1cc(F)c(-n2cnc3ccncc3c2=O)cc1[S+]([O-])CC(F)(F)F` (stereo not drawn) [Compound 14]: the “efficacy (laying of fertile eggs)” value in data set [3] was determined as 100%. Moreover, the “logP(HCOOH)” value in data set [1] (setting [8]) is reported as 1.61. For the same compound, the “logP(neutral)” value in data set [1] (setting [9]) was 1.64. Also, the “efficacy (spider mites killed)” value in data set [2] turned out to be 90%.

On to `Cc1cc(Cl)c(-n2cnc3ncccc3c2=O)cc1SCC(F)(F)F` [Compound 15], for which, in data set [1] (setting [8]), the “logP(HCOOH)” value came out at 2.62. The “logP(neutral)” value in data set [1] (setting [9]) is given as 2.62.

With `Cc1cc(C)c(-n2c(C)nc3ncccc3c2=O)cc1SCC(F)(F)F` [Compound 16], the “logP(HCOOH)” value in data set [1] (setting [8]) is on record as 2.63. Also, in data set [1] (setting [9]), the “logP(neutral)” value is given as 2.60.

For `Cc1cc(C)c([S+]([O-])CC(F)(F)F)cc1-n1c(C)nc2ncccc2c1=O` (stereo not drawn) [Compound 17], the “logP(HCOOH)” value in data set [1] (setting [8]) is listed as 1.67. The “logP(neutral)” value in data set [1] (setting [9]) worked out at 1.67. For the same compound, in data set [5], the “nematicidal efficacy (formation of galls)” value is given as 90%. Further, the “efficacy (spider mites killed)” value in data set [2] stood at 90%.

On to `Cc1cc(Cl)c(-n2cnc3ncccc3c2=O)cc1[S+]([O-])CC(F)(F)F` (stereo not drawn) [Compound 18], for which the “logP(HCOOH)” value in data set [1] (setting [8]) is reported as 1.77. For the same compound, the “logP(neutral)” value in data set [1] (setting [9]) turned out to be 1.73. The “efficacy (spider mites killed)” value in data set [2] worked out at 100%.
